From US8822449B2, “Substituted aminoindanes and analogs thereof, and the pharmaceutical use thereof” (Sanofi, priority 2008, dated 2014) come the findings set out here.

pIC50: −log10 of the molar value. Bounds are passed on as bounds.

For this test, the target named is T1, sodium-proton exchanger of subtype 3 (NHE3) (Homo sapiens, UniProt P48764).
T1 construct: expressed in transfected cells
T1 sequence (P48764 26-834): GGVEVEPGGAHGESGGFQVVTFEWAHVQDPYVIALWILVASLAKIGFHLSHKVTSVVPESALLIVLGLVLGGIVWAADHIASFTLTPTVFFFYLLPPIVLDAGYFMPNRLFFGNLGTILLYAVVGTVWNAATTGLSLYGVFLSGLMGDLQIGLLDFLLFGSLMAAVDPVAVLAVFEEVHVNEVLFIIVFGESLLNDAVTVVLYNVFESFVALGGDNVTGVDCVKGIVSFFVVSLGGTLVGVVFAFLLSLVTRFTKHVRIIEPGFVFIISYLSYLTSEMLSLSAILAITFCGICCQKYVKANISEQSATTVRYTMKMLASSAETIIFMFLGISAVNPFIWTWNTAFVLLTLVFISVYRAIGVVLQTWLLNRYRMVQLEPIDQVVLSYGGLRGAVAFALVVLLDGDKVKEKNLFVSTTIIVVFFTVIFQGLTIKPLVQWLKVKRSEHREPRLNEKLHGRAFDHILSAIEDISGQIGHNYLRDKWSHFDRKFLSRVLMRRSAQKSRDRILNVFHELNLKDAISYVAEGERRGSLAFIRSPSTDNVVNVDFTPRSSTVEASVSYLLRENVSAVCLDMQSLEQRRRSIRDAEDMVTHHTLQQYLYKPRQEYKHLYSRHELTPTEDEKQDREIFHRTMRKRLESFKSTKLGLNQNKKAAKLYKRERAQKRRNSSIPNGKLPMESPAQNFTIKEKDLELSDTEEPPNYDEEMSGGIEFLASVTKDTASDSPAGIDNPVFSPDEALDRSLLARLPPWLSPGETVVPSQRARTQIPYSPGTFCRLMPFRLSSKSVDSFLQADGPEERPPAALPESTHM
Kind of test: Recovery of intracellular pH (pHi) after acidification in LAP1 cells stably expressing NHE3 (BCECF fluorescence, FLIPR). The test is classed as cell-based. Particulars: LAP1 cells stably expressing NHE3; pH recovery after acidification; range 1 is % inhibition at 10 μM; read-out: Activity range (inhibitory effect on NHE3).
Turning to `CS(=O)(=O)c1ccc(O[C@@H]2c3ccccc3C[C@H]2NC2CCC2)cc1` (racemic) [Example 708, Cyclobutyl-[rac-trans-(1,2)-1-(4-methanesulfonyl-phenoxy)-indan-2-yl]-amine], the pIC50 is 5.00 to 6.00. Still for that read-out and setting: as for `COCCc1ccc(O[C@@H]2c3ccccc3C[C@H]2N2C[C@H]3CNC[C@H]3C2)cc1` (racemic) [Example 19, 2-{rac-trans-(1,2)-1-[4-(2-methoxyethyl)phenoxy]indan-2-yl}octahydropyrrolo[3,4-c]pyrrole], the figure is 5.00 to 6.00. For `N#Cc1ccc(S[C@H]2c3ccccc3C[C@@H]2N2CCCC2)cc1` [Example 455, 4-((1S,2S)-2-pyrrolidin-1-ylindan-1-ylsulfanyl)benzonitrile], the inhibition at 10 µM lay within 20 to 50%. Consider `N[C@H]1CCCN([C@@H]2Cc3ccccc3[C@H]2Oc2ccc(-n3ccnc3)cc2)C1` (racemic) [Example 181, (S)-1-[rac-trans-(1,2)-1-(4-imidazol-1-ylphenoxy)indan-2-yl]piperidin-3-ylamine], for which the pIC50 was 5.00 to 6.00. The same measure, in the same setting: the same measure for `NS(=O)(=O)c1ccc(O[C@@H]2c3ccccc3C[C@H]2NC2CCC2)c(F)c1` (racemic) [Example 709, 4-(rac-trans-(1,2)-2-Cyclobutylamino-indan-1-yloxy)-3-fluoro-benzenesulfonamide]: more than 6.00; for `CS(=O)(=O)c1nccn1-c1ccc(O[C@H]2c3cc(Cl)cc(Cl)c3C[C@@H]2N2CC[C@@H](O)C2)cc1` [Example 731, (R)-1-{trans-(1S,2S)-4,6-Dichloro-1-[4-(2-methanesulfonyl-imidazol-1-yl)-phenoxy]-indan-2-yl}-pyrrolidin-3-ol]: more than 6.00; for `Cc1nnc(C)n1-c1ccc(O[C@H]2c3cc(Cl)cc(Cl)c3C[C@@H]2N2CCCNCC2)c(Cl)c1` [Example 344, 1-{trans-(1S,2S)-4,6-dichloro-1-[2-chloro-4-(3,5-dimethyl-[1,2,4]triazol-4-yl)phenoxy]indan-2-yl}-[1,4]diazepane]: more than 6.00. Still for that read-out and setting: as for `Cc1nnc(C)n1-c1ccc(O[C@H]2c3cc(Cl)cc(F)c3C[C@@H]2N2CC[C@@H](O)C2)cc1` [Example 144, (R)-1-{trans-(1S,2S)-6-chloro-1-[4-(3,5-dimethyl-[1,2,4]triazol-4-yl)phenoxy]-4-fluoroindan-2-yl}pyrrolidin-3-ol], the figure is more than 6.00; as for `Clc1cc(Cl)c2c(c1)[C@H](Oc1ccc(-n3cncn3)cc1)[C@@H](N1CC3CNCC3C1)C2` (mixture of isomers) [Example 377, 2-[rac-trans-(1,2)-4,6-dichloro-1-(4-[1,2,4]triazol-1-ylphenoxy)indan-2-yl]octahydropyrrolo[3,4-c]pyrrole], more than 6.00; as for `CC(=O)Nc1cccc(O[C@H]2c3ccc(F)cc3C[C@@H]2N2CCCC2)c1` (racemic) [Example 656, N-[3-(rac-trans-(1,2)-5-fluoro-2-pyrrolidin-1-ylindan-1-yloxy)phenyl]acetamide], 5.00 to 6.00.

For the compound `CC(=O)Nc1cccc(O[C@@H]2c3ccccc3C[C@H]2N2CCC[C@@H](N)C2)c1` (racemic) [Example 679, N-{3-[rac-trans-(1,2)-2-((R)-3-aminopiperidin-1-yl)indan-1-yloxy]phenyl}acetamide], the pIC50 was more than 6.00. Same read-out and setting: the same measure for `Cc1nnc(C)n1-c1ccc(O[C@H]2c3cc(Cl)cc(F)c3C[C@@H]2N2CC[C@@H](O)C2)c(Cl)c1` [Example 138, (R)-1-{trans-(1S,2S)-6-chloro-1-[2-chloro-4-(3,5-dimethyl-[1,2,4]triazol-4-yl)phenoxy]-4-fluoroindan-2-yl}pyrrolidin-3-ol]: more than 6.00; for `CC(=O)Nc1cccc(O[C@H]2c3cc(Cl)cc(Cl)c3C[C@@H]2N2CCCNCC2)c1` (racemic) [Example 644, N-[3-(rac-trans-(1,2)-4,6-dichloro-2-[1,4]diazepan-1-ylindan-1-yloxy)phenyl]acetamide]: more than 6.00.
